According to patent US20140005163A1 (NOVARTIS AG, priority 2010, published 2014):

What was measured:
[1] = target: T1, PI3K delta (Homo sapiens, UniProt O00329); assay: PI3K delta kinase assay (Kinase-Glo luminescence); format: biochemical
T1 construct: for the full-length p110-d subunit are generated and fused by overlapping PCR; p85(iSH2) fusion partner (see partner chain) (N); His tag (C); made in house; host or cells: baculovirus; Tn5 (Trichoplusia ni) or TiniPro insect cells
Outline: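 Recombinant p85(iSH2)-Gly linker-p110δ full-length construct (BV1060, C-terminal His tag) was used at 10 nM with 10 μg/mL phosphatidylinositol and 1 μM ATP in 10 mM Tris-HCl pH 7.5, 3 mM MgCl2, 50 mM NaCl, 0.05% CHAPS, 1 mM DTT. After 60 min at room temperature, remaining ATP was measured by Kinase-Glo luminescence.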

[2] = tested on: PKB Ser473 phosphorylation in Rat1-myr-HA-p110 delta cells; assay: Reverse protein array assay, PKB Ser473 phosphorylation in Rat1-myr-p110 delta cells; format: cell-based; conditions: read-out: p-PKB IC50
Outline: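 After at least 20 h of culture, the p110 isoform-transfected Rat1 lines receive compound in an 8-step dilution series, keeping DMSO at 0.2%, for 30 minutes. Cells are then lysed and lysates arrayed on chips for fluorescence detection of Ser473-phosphorylated PKB.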

[3] = target: T2, PI3K alpha (Homo sapiens, UniProt P42336); assay: PI3K alpha kinase assay (Kinase-Glo luminescence); format: biochemical
T2 construct: p85(iSH2) fusion partner (see partner chain) (N); His tag (C); made in house; host or cells: baculovirus; Tn5 (Trichoplusia ni) or TiniPro insect cells
T2 sequence (P42336 with tags, fused parts or gaps limits assumed): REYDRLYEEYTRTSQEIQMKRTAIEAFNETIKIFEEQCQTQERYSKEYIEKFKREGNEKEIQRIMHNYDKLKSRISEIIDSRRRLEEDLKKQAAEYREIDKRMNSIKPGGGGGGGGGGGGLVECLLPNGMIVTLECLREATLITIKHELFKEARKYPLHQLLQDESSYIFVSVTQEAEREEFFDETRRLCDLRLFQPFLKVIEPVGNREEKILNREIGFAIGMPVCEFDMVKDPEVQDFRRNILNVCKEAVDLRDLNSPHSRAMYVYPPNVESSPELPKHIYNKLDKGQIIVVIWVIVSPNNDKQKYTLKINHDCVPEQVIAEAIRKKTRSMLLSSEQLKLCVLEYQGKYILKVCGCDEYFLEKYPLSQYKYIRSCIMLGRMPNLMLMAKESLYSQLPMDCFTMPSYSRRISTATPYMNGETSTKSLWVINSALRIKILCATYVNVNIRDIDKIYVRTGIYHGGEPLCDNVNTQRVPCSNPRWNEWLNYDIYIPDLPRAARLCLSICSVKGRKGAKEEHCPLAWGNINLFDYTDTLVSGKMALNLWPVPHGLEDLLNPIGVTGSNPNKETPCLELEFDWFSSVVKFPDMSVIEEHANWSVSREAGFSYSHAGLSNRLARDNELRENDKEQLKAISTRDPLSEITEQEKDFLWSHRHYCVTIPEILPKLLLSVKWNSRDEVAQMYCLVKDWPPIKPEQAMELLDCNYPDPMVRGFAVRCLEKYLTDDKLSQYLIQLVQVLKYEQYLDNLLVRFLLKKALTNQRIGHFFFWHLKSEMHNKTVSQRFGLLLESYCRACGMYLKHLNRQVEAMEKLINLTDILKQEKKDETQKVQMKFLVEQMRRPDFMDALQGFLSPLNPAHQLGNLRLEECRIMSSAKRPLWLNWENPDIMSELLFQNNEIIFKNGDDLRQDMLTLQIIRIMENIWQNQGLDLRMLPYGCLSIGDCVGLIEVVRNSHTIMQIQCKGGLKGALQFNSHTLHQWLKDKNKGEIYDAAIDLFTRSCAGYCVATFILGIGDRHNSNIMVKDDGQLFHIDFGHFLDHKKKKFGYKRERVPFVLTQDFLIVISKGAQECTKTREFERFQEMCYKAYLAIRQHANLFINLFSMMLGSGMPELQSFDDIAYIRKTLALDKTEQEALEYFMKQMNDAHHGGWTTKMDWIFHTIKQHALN
Outline: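 PI3Kα construct EMV B1075 (10 nM final) was preincubated with 10 μg/mL phosphatidylinositol in 10 mM Tris-HCl pH 7.5, 3 mM MgCl2, 50 mM NaCl, 0.05% CHAPS, 1 mM DTT. Reaction started with 1 μM ATP, 60 min at room temperature; remaining ATP measured by Kinase-Glo luminescence. IC50 from 4-parameter logistic fit of 8-point titrations.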

T1 sequence (O00329 with tags, fused parts or gaps limits assumed): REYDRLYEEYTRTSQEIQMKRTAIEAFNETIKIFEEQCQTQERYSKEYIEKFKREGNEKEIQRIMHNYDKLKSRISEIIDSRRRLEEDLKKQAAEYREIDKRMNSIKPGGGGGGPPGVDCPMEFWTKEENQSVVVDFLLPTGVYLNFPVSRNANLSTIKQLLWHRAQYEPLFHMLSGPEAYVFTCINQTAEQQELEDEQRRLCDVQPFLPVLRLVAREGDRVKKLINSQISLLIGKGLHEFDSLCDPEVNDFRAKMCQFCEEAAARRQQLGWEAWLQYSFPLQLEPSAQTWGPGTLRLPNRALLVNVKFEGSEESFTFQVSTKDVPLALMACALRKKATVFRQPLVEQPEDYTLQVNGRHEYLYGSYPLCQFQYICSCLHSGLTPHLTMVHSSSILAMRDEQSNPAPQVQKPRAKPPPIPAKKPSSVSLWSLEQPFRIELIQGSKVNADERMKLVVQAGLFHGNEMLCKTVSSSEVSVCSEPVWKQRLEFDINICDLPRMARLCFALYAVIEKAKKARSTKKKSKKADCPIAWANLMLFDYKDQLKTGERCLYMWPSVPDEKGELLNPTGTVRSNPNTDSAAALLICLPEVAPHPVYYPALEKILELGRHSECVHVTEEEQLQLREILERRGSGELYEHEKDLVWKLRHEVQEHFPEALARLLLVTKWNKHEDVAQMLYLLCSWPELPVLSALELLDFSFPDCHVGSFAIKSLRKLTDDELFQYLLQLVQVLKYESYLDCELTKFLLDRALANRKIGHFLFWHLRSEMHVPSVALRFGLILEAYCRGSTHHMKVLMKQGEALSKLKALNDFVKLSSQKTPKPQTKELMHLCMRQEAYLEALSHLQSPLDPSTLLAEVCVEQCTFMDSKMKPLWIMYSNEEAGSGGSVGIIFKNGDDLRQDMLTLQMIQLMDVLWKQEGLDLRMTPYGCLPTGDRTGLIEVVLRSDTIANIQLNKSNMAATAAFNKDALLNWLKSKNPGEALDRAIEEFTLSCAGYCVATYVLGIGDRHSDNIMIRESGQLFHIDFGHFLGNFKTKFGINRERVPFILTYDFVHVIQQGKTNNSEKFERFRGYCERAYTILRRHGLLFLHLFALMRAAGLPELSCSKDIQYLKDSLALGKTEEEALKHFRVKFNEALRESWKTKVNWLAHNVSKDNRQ

Row | SMILES | IC50 [1] [nM] | IC50 [2] [nM] | IC50 [3] [nM]
1 | Cc1nn(C)cc1-n1c(=S)n(C)c2cnc3ccc(-c4cccnc4)cc3c21 [Example 128.1, 1-(1,3-Dimethyl-1H-pyrazol-4-yl)-3-methyl-8-pyridin-3-yl-1,3-dihydro-imidazo[4,5-c]quinoline-2-thione] | 22 | 127 | 11
2 | CNc1ncc(-c2ccc3ncc4c(c3c2)n(-c2cn(C(C)C)nc2C)c(=O)n4C)cc1C(F)(F)F [Example 144.2, 1-(1-Isopropyl-3-methyl-1H-pyrazol-4-yl)-3-methyl-8-(6-methylamino-5-trifluoromethyl-pyridin-3-yl)-1,3-dihydro-imidazo[4,5-c]quinolin-2-one] | 4 | 12 | 8
3 | Cc1nn(C)cc1-n1c(=O)n(C)c2cnc3ccc(-c4cccc(OC(C)C)c4)cc3c21 [Example 82, 1-(1,3-Dimethyl-1H-pyrazol-4-yl)-8-(3-isopropoxy-phenyl)-3-methyl-1,3-dihydro-imidazo[4,5-c]quinolin-2-one] | 77 | 314 | 39
4 | CN(C)c1ncc(-c2ccc3ncc4c(c3c2)n(-c2cn(C)nc2Cl)c(=O)n4C)cn1 [Example 6.3, 1-(3-Chloro-1-methyl-1H-pyrazol-4-yl)-8-(2-dimethylamino-pyrimidin-5-yl)-3-methyl-1,3-dihydro-imidazo[4,5-c]quinolin-2-one] | 7 | 24 | 8
5 | Cc1nn(C)cc1-n1c(=O)n(C)c2cnc3ccc(-c4cccc(NS(C)(=O)=O)c4)cc3c21 [Example 47, N-{3-[1-(1,3-dimethyl-1H-pyrazol-4-yl)-3-methyl-2-oxo-2,3-dihydro-1H-imidazo[4,5-c]quinolin-8-yl]-phenyl}-methanesulfonamide] | 178 | 839 | 73
6 | CCN(CC)c1cncc(-c2ccc3ncc4c(c3c2)n(-c2cn(C)nc2C)c(=O)n4C)c1 [Example 95, 8-(5-Diethylamino-pyridin-3-yl)-1-(1,3-dimethyl-1H-pyrazol-4-yl)-3-methyl-1,3-dihydro-imidazo[4,5-c]quinolin-2-one] | 24 | 25 | 36
7 | Cc1nn(C)cc1-n1c(=O)n(C)c2cnc3ccc(-c4ccc(N5CCCC5)nc4)cc3c21 [Example 97, 1-(1,3-Dimethyl-1H-pyrazol-4-yl)-3-methyl-8-(6-pyrrolidin-1-yl-pyridin-3-yl)-1,3-dihydro-imidazo[4,5-c]quinolin-2-one] | 236 | 30 | 85
8 | CC(C)Oc1cncc(-c2ccc3ncc4c(c3c2)n(-c2cn(C)nc2Cl)c(=O)n4C)c1 [Example 58.2, 1-(3-Chloro-1-methyl-1H-pyrazol-4-yl)-8-(5-isopropoxy-pyridin-3-yl)-3-methyl-1,3-dihydro-imidazo[4,5-c]quinolin-2-one] | 4 | 12 | 6
9 | CNc1ncc(-c2ccc3ncc4c(c3c2)n(-c2cn(C)nc2Cl)c(=O)n4C)cc1C [Example 119, 1-(3-Chloro-1-methyl-1H-pyrazol-4-yl)-3-methyl-8-(5-methyl-6-methylamino-pyridin-3-yl)-1,3-dihydro-imidazo[4,5-c]quinolin-2-one] | 9 | 7 | 16
10 | Cc1nn(C)cc1-n1c(=O)n(C)c2cnc3ccc(-c4cnc(N)c(C(F)(F)F)c4)cc3c21 [Example 25.1, 8-(6-Amino-5-trifluoromethyl-pyridin-3-yl)-1-(1,3-dimethyl-1H-pyrazol-4-yl)-3-methyl-1,3-dihydro-imidazo[4,5-c]quinolin-2-one] | 13 | 9 | 14
11 | CCNc1ncc(-c2ccc3ncc4c(c3c2)n(-c2cn(C)nc2C)c(=O)n4C)cc1C(F)(F)F [Example 145.2, 1-(1,3-Dimethyl-1H-pyrazol-4-yl)-8-(6-ethylamino-5-trifluoromethyl-pyridin-3-yl)-3-methyl-1,3-dihydro-imidazo[4,5-c]quinolin-2-one] | 9 | 42 | 27
12 | COc1ccc(-c2ccc3ncc4c(c3c2)n(-c2cn(C)nc2C)c(=S)n4C)cc1OC [Example 128.2, 8-(3,4-Dimethoxy-phenyl)-1-(1,3-dimethyl-1H-pyrazol-4-yl)-3-methyl-1,3-dihydro-imidazo[4,5-c]quinoline-2-thione] | 11 | 10 | 11
13 | Cc1cc(-n2c(=O)n(C)c3cnc4ccc(-c5cnc(N)c(C(F)(F)F)c5)cc4c32)n(C)n1 [Example 25.6, 8-(6-Amino-5-trifluoromethyl-pyridin-3-yl)-1-(2,5-dimethyl-2H-pyrazol-3-yl)-3-methyl-1,3-dihydro-imidazo[4,5-c]quinolin-2-one] | 32 | 32 | 41
14 | Cc1nn(C)cc1-n1c(=O)n(C)c2cnc3ccc(-c4cncc(OC5CCC5)c4)cc3c21 [Example 60.1, 8-(5-Cyclobutoxy-pyridin-3-yl)-1-(1,3-dimethyl-1H-pyrazol-4-yl)-3-methyl-1,3-dihydro-imidazo[4,5-c]quinolin-2-one] | < 3 | 33 | < 3
15 | CCn1cc(-n2c(=O)n(C)c3cnc4ccc(-c5cnc(N)c(Cl)c5)cc4c32)c(C)n1 [Example 148.3, 8-(6-Amino-5-chloro-pyridin-3-yl)-1-(1-ethyl-3-methyl-1H-pyrazol-4-yl)-3-methyl-1,3-dihydro-imidazo[4,5-c]quinolin-2-one] | 13 | 14 | 7
16 | Cc1nn(C(C)C)cc1-n1c(=O)n(C)c2cnc3ccc(-c4cnc(Cl)c(N)c4)cc3c21 [Example 152.1, 8-(5-Amino-6-chloro-pyridin-3-yl)-1-(1-isopropyl-3-methyl-1H-pyrazol-4-yl)-3-methyl-1,3-dihydro-imidazo[4,5-c]quinolin-2-one] | 8 | 16 | 27

Continued, values first:

Row | IC50 [1] [nM] | IC50 [2] [nM] | IC50 [3] [nM] | SMILES
17 | 23 | 12 | 17 | Cc1nn(C)cc1-n1c(=O)n(C)c2cnc3ccc(-c4cncc(N(C)C5CCC5)c4)cc3c21 [Example 174, 8-[5-(Cyclobutyl-methyl-amino)-pyridin-3-yl]-1-(1,3-dimethyl-1H-pyrazol-4-yl)-3-methyl-1,3-dihydro-imidazo[4,5-c]quinolin-2-one]
18 | 7 | 45 | 10 | CCn1cc(-n2c(=O)n(C)c3cnc4ccc(-c5cncc(C(C)(C)C#N)c5)cc4c32)c(C)n1 [Example 220.2, 2-{5-[1-(1-Ethyl-3-methyl-1H-pyrazol-4-yl)-3-methyl-2-oxo-2,3-dihydro-1H-imidazo[4,5-c]quinolin-8-yl]-pyridin-3-yl}-2-methyl-propionitrile]
19 | 26 | 240 | 71 | CCNC(=O)c1cc(-c2ccc3ncc4c(c3c2)n(-c2cn(C(C)C)nc2C)c(=O)n4C)cnc1N [Example 227, 2-Amino-N-ethyl-5-[1-(1-isopropyl-3-methyl-1H-pyrazol-4-yl)-3-methyl-2-oxo-2,3-dihydro-1H-imidazo[4,5-c]quinolin-8-yl]-nicotinamide]
20 | 7 | 89 | 17 | [2H]C([2H])([2H])OCc1ncc(-c2ccc3ncc4c(c3c2)n(-c2cn(C)nc2C)c(=O)n4C)cc1OCC [Example 198, 1-(1,3-Dimethyl-1H-pyrazol-4-yl)-8-(5-ethoxy-6-trideuteromethoxymethyl-pyridin-3-yl)-3-methyl-1,3-dihydro-imidazo[4,5-c]quinolin-2-one]
21 | 6 | 158 | 11 | Cc1cc(-n2c(=O)n(C)c3cnc4ccc(-c5cnc(C)c(O)c5)cc4c32)n(C)n1 [Example 185.2, 1-(2,5-Dimethyl-2H-pyrazol-3-yl)-8-(5-hydroxy-6-methyl-pyridin-3-yl)-3-methyl-1,3-dihydro-imidazo[4,5-c]quinolin-2-one]
22 | 19 | 119 | 64 | COc1ncc(-c2ccc3ncc4c(c3c2)n(-c2cc(C)nn2C)c(=O)n4C)c(OC)n1 [Example 234.4, 8-(2,4-Dimethoxy-pyrimidin-5-yl)-1-(2,5-dimethyl-2H-pyrazol-3-yl)-3-methyl-1,3-dihydro-imidazo[4,5-c]quinolin-2-one]
23 | 6 | 111 | 10 | CCOCc1cc(-c2ccc3ncc4c(c3c2)n(-c2cn(C(C)C)nc2C)c(=O)n4C)cnc1N [Example 166.3, 8-(6-Amino-5-ethoxymethyl-pyridin-3-yl)-1-(1-isopropyl-3-methyl-1H-pyrazol-4-yl)-3-methyl-1,3-dihydro-imidazo[4,5-c]quinolin-2-one]
24 | 26 | 116 | 11 | CCn1cc(-n2c(=O)n(C)c3cnc4ccc(-c5ccc(OC)c(OC)c5)nc4c32)c(C)n1 [Example 254, 8-(3,4-Dimethoxy-phenyl)-1-(1-ethyl-3-methyl-1H-pyrazol-4-yl)-3-methyl-1,3-dihydro-1,3,5,9-tetraaza-cyclopenta[a]naphthalen-2-one]
